One data set concerns MRC-5 fibroblast cells. The experiment in a line: In vitro fibroblast proliferation/viability with M6P and TGF-β1. It is filed as cell-based. An excerpt:
FIGS. 8A-B show images illustrating that M6P competes with TGFβ. (A) Use of MRC-5 fibroblast cells in an in vitro assessment of concentration effects of TGFβ and M6P as well as effectiveness of M6P to block the proliferative effects of TGFβ. (B) Schematic showing potential mechanism of M6P and TGFβ competing for the same M6P receptor that leads to increase gene regulation.

The next data set deals with CTGF. Particulars: cells under hypoxic conditions; Haung, Adah et al. 2009; cited from earlier work.
The next data set concerns human tenocytes. Particulars: in vitro; Wong, Tang et al. 2003; cited from earlier work.
The subject of the next data set is Hif-1 alpha. The experiment in a line: Inhibition of Hif-1 alpha leading to CTGF in vitro. An excerpt: Fructose-1,6-bisphosphate (FBP) is an intermediate in glycolysis which, if provided to cells could allow them to bypass two ATP-requiring steps for energy production. […] M6P is known to isomerize to fructose-6-phosphate (F6P), an intermediate of glycolysis in the step prior to FBP (FIG. 1). Therefore, one might hypothesize that treatment with M6P may decrease production of CTGF by decreasing the need for substrate-level phosphorylation, which would be vital in hypoxic conditions. In this regard, the present inventors have shown that […] produces the inhibition of Hif-1 alpha leading to CTGF in vitro. Alternatively, latent TGF-β is activated through its binding with the M6P/IGFII receptor (Ghahary, Tredget et al. 1999). Competitive inhibition of the activation of TGF-β through treatment with M6P is considered another method by which M6P may inhibit fibrosis. It is thought that M6P may have more potential for reducing fibrosis than FBP because its mechanism of action is not dependent upon a hypoxic environment.

Data set [1] deals with human dermal fibroblast and keratinocyte. As to conditions: Clavel, Barragan-Montero et al. 2005; cited from earlier work.
In a further data set the test system is digital flexor tendons. Particulars: three weeks after operation; vs operated controls; cited from earlier work.

For “TGF-β1: TGF-β1 growth factor added to fibroblast cells [reference compound]”, the cell proliferation result with MRC-5 fibroblast cells (TGF-β1 added at 8 pM) is listed as “enhanced cell proliferation”. Also, in the data set on MRC-5 fibroblast cells (TGF-β1 at the higher doses), the “toxicity to the cells” value is reported as “toxic”.

Regarding `O=C(COP(=O)(O)O)[C@@H](O)[C@H](O)[C@H](O)COP(=O)(O)O` [FBP, Fructose-1,6-bisphosphate], the “production of CTGF” value with CTGF is recorded as “decreases production of CTGF to near control conditions”. With `C[C@@H]1C[C@H]2[C@@H]3CCC4=CC(=O)C=C[C@]4(C)[C@@]3(F)[C@@H](O)C[C@]2(C)[C@@]1(O)C(=O)CO` [dexamethasone], in the data set with human tenocytes, the “tenocyte viability, mitotic activity and collagen production” value is recorded as “negative effects”.

`O=C(CO)[C@@H](O)[C@H](O)[C@H](O)COP(=O)(O)O` [F6P, fructose 6 phosphate]: the “inhibition of Hif-1 alpha leading to CTGF” value in the data set on Hif-1 alpha was “inhibition”. Consider `O=C[C@@H](O)[C@@H](O)[C@H](O)[C@H](O)COP(=O)(O)O` [M6P, mannose 6 phosphate], for which, in the data set with MRC-5 fibroblast cells (0.05 μM M6P), the “cell proliferation of fibroblast cells” value is “enhance cell proliferation” and the “toxic effect on fibroblast cells” value is reported as “without evidence of a toxic effect”. Further, in the data set with MRC-5 fibroblast cells (M6P added along with TGF-β1), the TGF-β1-induced proliferation entry is “increased proliferation was eliminated”. Further, the inhibition of proliferation entry in data set [1] is “potent inhibitor”.

B1: PDGF-BB: platelet-derived growth factor-BB, controlled release from fibrin-based delivery system (protein, UniProt P01127 82-190, looked up)
Platelet-derived growth …: SLGSLTIAEPAMIAECKTRTEVFEISRRLIDRTNANFLVWPPCVEVQRCSGCCNNRNVQCRPTQVQLRPVQVRKIEIVRKKPIFKKATVTLEDHLACKCETVAAARPVT
Regarding B1, in the data set with digital flexor tendons, the “range of motion (ROM)” value is “significantly greater ROM”.

The values above are taken from patent US20250186652A1, “ARTICLES AND METHODS FOR IMPROVED TISSUE HEALING” (UNIVERSITY OF MISSISSIPPI MEDICAL CENTER, priority 2022, published 2025).
